Laboratory results published in PMC9933483, “Tail-Approach-Based Design and Synthesis of Coumarin-Monoterpenes as Carbonic Anhydrase Inhibitors and Anticancer Agents” (ACS Omega, 2023).

What was measured:
[1] = tested on: HT-29 cell line; test: Cell cytotoxicity, MTT assay; assay type: cell-based, human; settings: Homo sapiens, HT-29; MTT, 24 h
[2] = target: hCA IX (Homo sapiens, UniProt Q16790); test: biochemical
[3] = tested on: MCF-7 cell line; test: Cell cytotoxicity, MTT assay; assay type: cell-based, human
[4] = tested on: PC-3 cell line; test: Cell cytotoxicity, MTT assay; assay type: cell-based; settings: Homo sapiens, 24 h
[5] = tested on: HEK293T cell line; test: Cell cytotoxicity, MTT assay; assay type: cell-based; settings: Homo sapiens, HEK-293T, 24 h, healthy cell line

Row | melting point | Ki [2] | SMILES | IC50 [1] | IC50 ([3]; Homo sapiens, MCF7, 24 h) | IC50 [4] | IC50 [5] | IC50 ([3]; 24 h)
1 | – | 0.0383 µM | Cc1ccc(C(C)C)c(OCCCCCCCCCCCCOc2ccc3ccc(=O)oc3c2)c1 [Compound 51, 7-((12-(2-Isopropyl-5-methylphenoxy)dodecyl)oxy)-2H-chromen-2-one] | > 200 µM | 19.6 ± 3.14 µM | 62.8 ± 23.7 µM | 50.1 ± 15.7 µM | –
2 | 172 to 173 °C | – | Cc1ccc(C(C)C)cc1OCCOc1ccc2ccc(=O)oc2c1 [Compound 52, 7-(2-(5-Isopropyl-2-methylphenoxy)ethoxy)-2H-chromen-2-one] | 74.2 ± 6.48 µM | – | – | – | –
3 | – | 0.303 µM | Cc1ccc(C(C)C)cc1OCCCOc1ccc2ccc(=O)oc2c1 [Compound 53, 7-(3-(5-Isopropyl-2-methylphenoxy)propoxy)-2H-chromen-2-one] | > 80 µM | 30.8 ± 9.23 µM | > 200 µM | > 80 µM | –
4 | – | 0.0362 µM | Cc1ccc(C(C)C)cc1OCCCCCCOc1ccc2ccc(=O)oc2c1 [Compound 55, 7-((6-(5-Isopropyl-2-methylphenoxy)hexyl)oxy)-2H-chromen-2-one] | 63.29 ± 0.57 µM | 16.4 ± 2.91 µM | 48.3 ± 14.1 µM | > 80 µM | –
5 | 50 to 51 °C | – | Cc1ccc(C(C)C)cc1OCCCCCCCCCCOc1ccc2ccc(=O)oc2c1 [Compound 58, 7-((10-(5-Isopropyl-2-methylphenoxy)decyl)oxy)-2H-chromen-2-one] | > 200 µM | – | – | – | –
6 | 58 to 59 °C | – | Cc1ccc(C(C)C)cc1OCCCCCCCCCCCCOc1ccc2ccc(=O)oc2c1 [Compound 59, 7-((12-(5-Isopropyl-2-methylphenoxy)dodecyl)oxy)-2H-chromen-2-one] | > 200 µM | – | – | – | –
7 | 70 to 71 °C | – | C=CCc1ccc(OCCCOc2ccc3ccc(=O)oc3c2)c(OC)c1 [Compound 61, 7-(3-(4-Allyl-2-methoxyphenoxy)propoxy)-2H-chromen-2-one] | > 80 µM | – | – | – | –
8 | 62 to 63 °C | – | C=CCc1ccc(OCCCCCCCOc2ccc3ccc(=O)oc3c2)c(OC)c1 [Compound 64, 7-((7-(4-Allyl-2-methoxyphenoxy)heptyl)oxy)-2H-chromen-2-one] | > 80 µM | – | – | – | –
9 | 56 to 57 °C | – | C=CCc1ccc(OCCCCCCCCCOc2ccc3ccc(=O)oc3c2)c(OC)c1 [Compound 65, 7-((9-(4-Allyl-2-methoxyphenoxy)nonyl)oxy)-2H-chromen-2-one] | 39.4 ± 7.1 µM | – | – | – | –
10 | – | 0.0341 µM | CC1CCC(C(C)C)C(OCCCOc2ccc3ccc(=O)oc3c2)C1 (stereo not drawn) [Compound 69, 7-(3-((2-Isopropyl-5-methylcyclohexyl)oxy)propoxy)-2H-chromen-2-one] | 12.1 ± 1.94 µM | 5.86 ± 1.22 µM | 41.4 ± 14.9 µM | 50 ± 8.43 µM | –

The next lines start with the molecule.

Row | SMILES | melting point | Ki [2] | IC50 [1] | IC50 ([3]; Homo sapiens, MCF7, 24 h) | IC50 [4] | IC50 [5] | IC50 ([3]; 24 h)
11 | Cc1ccc(C(C)C)c(OCc2cn(CCCCCCCCCCOc3ccc4ccc(=O)oc4c3)nn2)c1 [Compound 18, 7-((10-(4-((2-Isopropyl-5-methylphenoxy)methyl)-1H-1,2,3-triazol-1-yl)decyl)oxy)-2H-chromen-2-one] | 72 to 73 °C | 0.268 µM | 41.5 ± 14.2 µM | – | – | – | –
12 | Cc1ccc(C(C)C)c(OCc2cn(CCCCCCCCCCCCOc3ccc4ccc(=O)oc4c3)nn2)c1 [Compound 19, 7-((12-(4-((2-Isopropyl-5-methylphenoxy)methyl)-1H-1,2,3-triazol-1-yl)dodecyl)oxy)-2H-chromen-2-one] | 68 to 69 °C | 0.0218 µM | 37.6 ± 11.7 µM | – | – | – | –
13 | Cc1ccc(C(C)C)cc1OCc1cn(CCCCCCCOc2ccc3ccc(=O)oc3c2)nn1 [Compound 24, 7-((7-(4-((5-Isopropyl-2-methylphenoxy)methyl)-1H-1,2,3-triazol-1-yl)heptyl)oxy)-2H-chromen-2-one] | 83 to 84 °C | 0.0327 µM | 56.9 ± 18.2 µM | > 200 µM | > 200 µM | 134 ± 60.4 µM | –
14 | Cc1ccc(C(C)C)cc1OCc1cn(CCCCCCCCCOc2ccc3ccc(=O)oc3c2)nn1 [Compound 25, 7-((9-(4-((5-Isopropyl-2-methylphenoxy)methyl)-1H-1,2,3-triazol-1-yl)nonyl)oxy)-2H-chromen-2-one] | 69 to 70 °C | 0.0897 µM | 47.6 ± 13.8 µM | – | – | – | –
15 | Cc1ccc(C(C)C)cc1OCc1cn(CCCCCCCCCCOc2ccc3ccc(=O)oc3c2)nn1 [Compound 26, 7-((10-(4-((5-Isopropyl-2-methylphenoxy)methyl)-1H-1,2,3-triazol-1-yl)decyl)oxy)-2H-chromen-2-one] | 73 to 74 °C | 0.258 µM | 40.8 ± 10.2 µM | – | – | – | –
16 | Cc1ccc(C(C)C)cc1OCc1cn(CCCCCCCCCCCCOc2ccc3ccc(=O)oc3c2)nn1 [Compound 27, 7-((12-(4-((5-Isopropyl-2-methylphenoxy)methyl)-1H-1,2,3-triazol-1-yl)dodecyl)oxy)-2H-chromen-2-one] | 80 to 81 °C | 0.0304 µM | 29.6 ± 6.47 µM | – | – | – | –
17 | C=CCc1ccc(OCc2cn(CCOc3ccc4ccc(=O)oc4c3)nn2)c(OC)c1 [Compound 28, 7-(2-(4-((4-Allyl-2-methoxyphenoxy)methyl)-1H-1,2,3-triazol-1-yl)ethoxy)-2H-chromen-2-one] | 118 to 119 °C | 0.0319 µM | 25.8 ± 8.4 µM | – | – | – | –
18 | C=CCc1ccc(OCc2cn(CCCOc3ccc4ccc(=O)oc4c3)nn2)c(OC)c1 [Compound 29, 7-(3-(4-((4-Allyl-2-methoxyphenoxy)methyl)-1H-1,2,3-triazol-1-yl)propoxy)-2H-chromen-2-one] | 88 to 89 °C | – | 23.5 ± 7.22 µM | 20.6 ± 6.5 µM | 32.4 ± 9.16 µM | 34.1 ± 8.6 µM | –
19 | C=CCc1ccc(OCc2cn(CCCCOc3ccc4ccc(=O)oc4c3)nn2)c(OC)c1 [Compound 30, 7-(4-(4-((4-Allyl-2-methoxyphenoxy)methyl)-1H-1,2,3-triazol-1-yl)butoxy)-2H-chromen-2-one] | 73 to 74 °C | – | 41.8 ± 13.5 µM | 51.2 ± 27 µM | 57.6 ± 23.9 µM | 26.8 ± 2.44 µM | –
20 | C=CCc1ccc(OCc2cn(CCCCCCCOc3ccc4ccc(=O)oc4c3)nn2)c(OC)c1 [Compound 32, 7-((7-(4-((4-Allyl-2-methoxyphenoxy)methyl)-1H-1,2,3-triazol-1-yl)heptyl)oxy)-2H-chromen-2-one] | 101 to 102 °C | – | 16.3 ± 5.34 µM | > 200 µM | 36.7 ± 29 µM | 40.6 ± 13.7 µM | –
21 | C=CCc1ccc(OCc2cn(CCCCCCCCCOc3ccc4ccc(=O)oc4c3)nn2)c(OC)c1 [Compound 33, 7-((9-(4-((4-Allyl-2-methoxyphenoxy)methyl)-1H-1,2,3-triazol-1-yl)nonyl)oxy)-2H-chromen-2-one] | 83 to 84 °C | 0.189 µM | 31.3 ± 10.9 µM | – | – | – | –
22 | C=CCc1ccc(OCc2cn(CCCCCCCCCCOc3ccc4ccc(=O)oc4c3)nn2)c(OC)c1 [Compound 34, 7-((10-(4-((4-Allyl-2-methoxyphenoxy)methyl)-1H-1,2,3-triazol-1-yl)decyl)oxy)-2H-chromen-2-one] | 48 to 49 °C | 0.0281 µM | 25.7 ± 8.15 µM | – | – | – | –
23 | C=CCc1ccc(OCc2cn(CCCCCCCCCCCCOc3ccc4ccc(=O)oc4c3)nn2)c(OC)c1 [Compound 35, 7-((12-(4-((4-Allyl-2-methoxyphenoxy)methyl)-1H-1,2,3-triazol-1-yl)dodecyl)oxy)-2H-chromen-2-one] | 72 to 74 °C | 0.0299 µM | 23.2 ± 6.94 µM | – | – | – | –
24 | CC1CCC(C(C)C)C(OCc2cn(CCOc3ccc4ccc(=O)oc4c3)nn2)C1 (stereo not drawn) [Compound 36, 7-(2-(4-(((2-isopropyl-5-methylcyclohexyl)oxy)methyl)-1H-1,2,3-triazol-1-yl)ethoxy)-2H-chromen-2-one] | 122 to 123 °C | – | 38.2 ± 12.1 µM | – | – | – | –
25 | CC1CCC(C(C)C)C(OCc2cn(CCCOc3ccc4ccc(=O)oc4c3)nn2)C1 (stereo not drawn) [Compound 37, 7-(3-(4-(((2-Isopropyl-5-methylcyclohexyl)oxy)methyl)-1H-1,2,3-triazol-1-yl)propoxy)-2H-chromen-2-one] | 78 to 79 °C | – | 39.9 ± 11.8 µM | 18.4 ± 3.81 µM | 29.1 ± 6.83 µM | 24.2 ± 3.2 µM | –
26 | CC1CCC(C(C)C)C(OCc2cn(CCCCOc3ccc4ccc(=O)oc4c3)nn2)C1 (stereo not drawn) [Compound 38, 7-(4-(4-(((2-Isopropyl-5-methylcyclohexyl)oxy)methyl)-1H-1,2,3-triazol-1-yl)butoxy)-2H-chromen-2-one] | 75 to 76 °C | 0.3 µM | 37.2 ± 11.6 µM | – | – | – | –
27 | CC1CCC(C(C)C)C(OCc2cn(CCCCCCCCCCCCOc3ccc4ccc(=O)oc4c3)nn2)C1 (stereo not drawn) [Compound 43, 7-((12-(4-(((2-Isopropyl-5-methylcyclohexyl)oxy)methyl)-1H-1,2,3-triazol-1-yl)dodecyl)oxy)-2H-chromen-2-one] | 59 to 60 °C | 0.0025 µM | 27.2 ± 6.18 µM | 77.2 ± 34.8 µM | 32.3 ± 9.99 µM | 50.6 ± 8.63 µM | –
28 | Cc1ccc(C(C)C)c(OCCOc2ccc3ccc(=O)oc3c2)c1 [Compound 44, 7-(2-(2-Isopropyl-5-methylphenoxy)ethoxy)-2H-chromen-2-one] | 181 to 182 °C | – | 55.6 ± 4.91 µM | – | – | – | –
29 | Cc1ccc(C(C)C)cc1OCCCCOc1ccc2ccc(=O)oc2c1 [Compound 54, 7-(4-(5-Isopropyl-2-methylphenoxy)butoxy)-2H-chromen-2-one] | 74 to 75 °C | – | 59.8 ± 6.73 µM | – | – | – | –
30 | C=CCc1ccc(OCCCCOc2ccc3ccc(=O)oc3c2)c(OC)c1 [Compound 62, 7-(4-(4-Allyl-2-methoxyphenoxy)butoxy)-2H-chromen-2-one] | – | 0.0313 µM | > 80 µM | 11.3 ± 3.61 µM | 45.5 ± 26.5 µM | 64.7 ± 20.1 µM | –
31 | CC1CCC(C(C)C)C(OCCCCOc2ccc3ccc(=O)oc3c2)C1 (stereo not drawn) [Compound 70, 7-(4-((2-Isopropyl-5-methylcyclohexyl)oxy)butoxy)-2H-chromen-2-one] | – | 0.142 µM | 14.7 ± 2.81 µM | 7.53 µM | 24.8 ± 5.35 µM | 63.5 ± 11.4 µM | 4.53 ± 1.06 µM
